For this test, the target named is Ba/F3 (EGFR^L858R/T790M/C797S) cells (Homo sapiens, UniProt P00533, T790M/C797S/L858R, cells depend on it). Put plainly: Antiproliferative activity on Ba/F3 (EGFR L858R/T790M/C797S) cells (CTG). The class given is cell-based. The following applies: 72h incubation, CTG luminescence, read-out: IC50 (nM), antiproliferative activity. As for the experimental part:
30 nL of the compound dilution was added to a 384-well plate by Echo (Labcyte, Echo550).
The percent inhibition rate (% inhibition) was calculated by the following formula
[formula] • LUMcmpd: Luminescence value of assay compound. • LUMpositive: Average LUM value of positive drug with a concentration of 10 μM. • LUMvehicle: Average LUM value of negative control group without drug treatment.
The nonlinear regression curve (dose response-variable slope) between the value of inhibition rate (%) and the logarithm of compound concentration was fitted with graphpad prism 8.0, the effect dose curve of compound was drawn, and the IC50 value was calculated.
Y=Bottom+(Top−Bottom)/(1+10^((Log IC50−X)*HillSlope)) • X-axis: logarithm of compound concentration; Y axis: inhibition rate (% inhibition).

Molecules are shown by their SMILES.

Ba/F3 (EGFR^L858R/T790M/C797S) cells, sequence (P00533 whole entry T790M/C797S/L858R): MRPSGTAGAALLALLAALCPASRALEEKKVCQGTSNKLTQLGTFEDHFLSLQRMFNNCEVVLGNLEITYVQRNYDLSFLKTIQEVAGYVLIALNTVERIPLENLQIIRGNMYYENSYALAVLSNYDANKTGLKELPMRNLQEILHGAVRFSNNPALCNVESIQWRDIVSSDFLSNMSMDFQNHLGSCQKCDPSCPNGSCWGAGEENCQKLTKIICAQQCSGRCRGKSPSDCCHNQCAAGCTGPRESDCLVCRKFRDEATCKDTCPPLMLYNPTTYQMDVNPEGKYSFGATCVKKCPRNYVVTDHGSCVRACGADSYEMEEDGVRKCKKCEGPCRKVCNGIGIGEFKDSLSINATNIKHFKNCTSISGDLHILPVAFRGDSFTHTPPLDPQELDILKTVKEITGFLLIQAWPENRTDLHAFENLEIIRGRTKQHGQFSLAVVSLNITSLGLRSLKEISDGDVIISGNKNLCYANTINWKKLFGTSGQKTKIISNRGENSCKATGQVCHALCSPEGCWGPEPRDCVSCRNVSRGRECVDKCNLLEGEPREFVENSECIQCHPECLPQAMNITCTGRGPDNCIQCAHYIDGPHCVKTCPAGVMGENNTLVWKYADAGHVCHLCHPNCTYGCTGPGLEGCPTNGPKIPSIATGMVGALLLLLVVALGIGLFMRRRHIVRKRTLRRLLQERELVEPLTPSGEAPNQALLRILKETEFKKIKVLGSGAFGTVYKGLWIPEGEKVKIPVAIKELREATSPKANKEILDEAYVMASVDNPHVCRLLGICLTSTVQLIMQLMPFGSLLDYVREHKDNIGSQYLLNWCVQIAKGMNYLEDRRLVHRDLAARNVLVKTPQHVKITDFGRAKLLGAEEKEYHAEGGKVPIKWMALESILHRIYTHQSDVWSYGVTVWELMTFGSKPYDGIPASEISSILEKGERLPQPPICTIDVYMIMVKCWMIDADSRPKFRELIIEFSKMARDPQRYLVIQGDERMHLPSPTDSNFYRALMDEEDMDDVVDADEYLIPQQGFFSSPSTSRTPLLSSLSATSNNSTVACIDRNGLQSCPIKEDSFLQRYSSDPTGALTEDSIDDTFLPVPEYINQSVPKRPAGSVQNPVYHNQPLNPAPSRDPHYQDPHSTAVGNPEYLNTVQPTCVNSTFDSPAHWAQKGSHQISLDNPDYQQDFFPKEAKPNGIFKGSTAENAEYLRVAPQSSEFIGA

With `CC#CC(=O)Nc1cc(Nc2ncc(Cl)c(Nc3ccccc3P(C)(C)=O)n2)c(OC)cc1N1CCC(N2CCN(CCCCCC#Cc3cccc4c3CN(C3CCC(=O)NC3=O)C4=O)CC2)CC1` (stereo not shown) [Compound D560, N-(5-((5-chloro-4-((2-(dimethylphosphoryl)phenyl)amino)pyrimidin-2-yl)amino)-2-(4-(4-(7-(2-(2,6-dioxopiperidin-3-yl)-1-oxoisoindolin-4-yl)hept-6-yn-1-yl)piperazin-1-yl)piperidin-1-yl)-4-methoxyphenyl)but-2-ynamide], the GI50 amounted to 112 nM. For `COc1cc(N2CCC(N3CCN(CCCCCC#Cc4cccc5c4CN(C4CCC(=O)NC4=O)C5=O)CC3)CC2)c(NC(=O)/C=C/CN(C)C)cc1Nc1ncc(Br)c(Nc2ccccc2P(C)(C)=O)n1` (stereo not shown) [Compound D563, N-(5-((5-bromo-4-((2-(dimethylphosphoryl)phenyl)amino)pyrimidin-2-yl)amino)-2-(4-(4-(7-(2-(2,6-dioxopiperidin-3-yl)-1-oxoisoindolin-4-yl)hept-6-yn-1-yl)piperazin-1-yl)piperidin-1-yl)-4-dimethoxyphenyl)-4-(dimethylamino)but-2-enamide] the value was 306 nM. Regarding `C=C(C)C(=O)Nc1cc(Nc2ncc(Cl)c(Nc3ccccc3P(C)(C)=O)n2)c(OC)cc1N1CCC(N2CCN(CCCC#Cc3cccc4c3CN(C3CCC(=O)NC3=O)C4=O)CC2)CC1` (stereo not shown) [Compound D579, N-(5-((5-chloro-4-((2-(dimethylphosphoryl)phenyl)amino)pyrimidin-2-yl)amino)-2-(4-(4-(5-(2-(2,6-dioxopiperidin-3-yl)-1-oxoisoindolin-4-yl)pent-4-yn-1-yl)piperazin-1-yl)piperidin-1-yl)-4-methoxyphenyl)methacrylamide], the GI50 is 41.4 nM.

Consider `COc1cc(N2CCC(N3CCN(CCCC#Cc4cccc5c4CN(C4CCC(=O)NC4=O)C5=O)CC3)CC2)c(NC(=O)/C=C/c2c[nH]cn2)cc1Nc1ncc(Cl)c(Nc2ccccc2P(C)(C)=O)n1` (stereo not shown) [Compound D581, N-(5-((5-chloro-4-((2-(dimethylphosphoryl)phenyl)amino)pyrimidin-2-yl)amino)-2-(4-(4-(5-(2-(2,6-dioxopiperidin-3-yl)-1-oxoisoindolin-4-yl)pent-4-yn-1-yl)piperazin-1-yl)piperidin-1-yl)-4-methoxyphenyl)-3-(1H-imidazol-4-yl)acrylamide], for which the GI50 is 2600 nM. The same measure for `COc1cc(N2CCC(N3CCN(CCCC#Cc4cccc5c4CN(C4CCC(=O)NC4=O)C5=O)CC3)CC2)c(NC(=O)/C=C/c2cccs2)cc1Nc1ncc(Cl)c(Nc2ccccc2P(C)(C)=O)n1` (stereo not shown) [Compound D583, (E)-N-(5-((5-chloro-4-((2-(dimethylphosphoryl)phenyl)amino)pyrimidin-2-yl)amino)-2-(4-(4-(5-(2-(2,6-dioxopiperidin-3-yl)-1-oxoisoindolin-4-yl)pent-4-yn-1-yl)piperazin-1-yl)piperidin-1-yl)-4-methoxyphenyl)-3-(thiophen-2-yl)acrylamide]: 45.6 nM. In the case of `COc1cc(N2CCC(N3CCN(CCCC#Cc4cccc5c4CN(C4CCC(=O)NC4=O)C5=O)CC3)CC2)c(NC(=O)/C=C/CN2CCCCC2)cc1Nc1ncc(Cl)c(Nc2ccccc2P(C)(C)=O)n1` (stereo not shown) [Compound D584, (E)-N-(5-((5-chloro-4-((2-(dimethylphosphoryl)phenyl)amino)pyrimidin-2-yl)amino)-2-(4-(4-(5-(2-(2,6-dioxopiperidin-3-yl)-1-oxoisoindolin-4-yl)pent-4-yn-1-yl)piperazin-1-yl)piperidin-1-yl)-4-methoxyphenyl)-4-(piperidin-1-yl)but-2-enamide], the GI50 came to 216 nM.

Consider `COc1cc(N2CCC(N3CCN(CCCC#Cc4cccc5c4CN(C4CCC(=O)NC4=O)C5=O)CC3)CC2)c(NC(=O)/C=C/C(F)(F)F)cc1Nc1ncc(Cl)c(Nc2ccccc2P(C)(C)=O)n1` (stereo not shown) [Compound D596, N-(5-((5-chloro-4-((2-(dimethylphosphoryl)phenyl)amino)pyrimidin-2-yl)amino)-2-(4-(4-(5-(2-(2,6-dioxopiperidin-3-yl)-1-oxoisoindolin-4-yl)pent-4-yn-1-yl)piperazin-1-yl)piperidin-1-yl)-4-methoxyphenyl)-4,4,4-trifluorobut-2-enamide], for which the GI50 amounted to 31.7 nM. Regarding `C=C(Cl)C(=O)Nc1cc(Nc2ncc(Cl)c(Nc3ccccc3P(C)(C)=O)n2)c(OC)cc1N1CCC(N2CCN(CCCC#Cc3cccc4c3CN(C3CCC(=O)NC3=O)C4=O)CC2)CC1` (stereo not shown) [Compound D597, 2-chloro-N-(5-((5-chloro-4-((2-(dimethylphosphoryl)phenyl)amino)pyrimidin-2-yl)amino)-2-(4-(4-(5-(2-(2,6-dioxopiperidin-3-yl)-1-oxoisoindolin-4-yl)pent-4-yn-1-yl)piperazin-1-yl)piperidin-1-yl)-4-methoxyphenyl)acrylamide], the GI50 worked out at 460 nM. `C=CC(=O)Nc1cc(Nc2ncc(Cl)c(Nc3ccccc3P(C)(C)=O)n2)c(OC)cc1N1CCC(N2CCN(CCCCC#Cc3ccc4c(c3)CN(C3CCC(=O)NC3=O)C4=O)CC2)CC1` (stereo not shown) [Compound D601, N-(5-((5-chloro-4-((2-(dimethylphosphoryl)phenyl)amino)pyrimidin-2-yl)amino)-2-(4-(4-(6-(2-(2,6-dioxopiperidin-3-yl)-1-oxoisoindolin-5-yl)hex-5-yn-1-yl)piperazin-1-yl)piperidin-1-yl)-4-methoxyphenyl)acrylamide]: the GI50 is 144 nM. As for `CC#CC(=O)Nc1cc(Nc2ncc(Cl)c(Nc3ccccc3P(C)(C)=O)n2)c(OC)cc1N1CCC(N2CCN(CCCCC#Cc3ccc4c(c3)CN(C3CCC(=O)NC3=O)C4=O)CC2)CC1` (stereo not shown) [Compound D602, N-(5-((5-chloro-4-((2-(dimethylphosphoryl)phenyl)amino)pyrimidin-2-yl)amino)-2-(4-(4-(6-(2-(2,6-dioxopiperidin-3-yl)-1-oxoisoindolin-5-yl)hex-5-yn-1-yl)piperazin-1-yl)piperidin-1-yl)-4-methoxyphenyl)but-2-ynamide], the GI50 came to 57.3 nM.

As to `COc1cc(N2CCC(N3CCN(CCCC#Cc4cccc5c4CN(C4CCC(=O)NC4=O)C5=O)CC3)CC2)c(NC(=O)/C=C/C(F)(F)F)cc1Nc1ncc(Br)c(Nc2ccccc2P(C)(C)=O)n1` (stereo not shown) [Compound D603, (E)-N-(5-((5-bromo-4-((2-(dimethylphosphoryl)phenyl)amino)pyrimidin-2-yl)amino)-2-(4-(4-(5-(2-(2,6-dioxopiperidin-3-yl)-1-oxoisoindolin-4-yl)pent-4-yn-1-yl)piperazin-1-yl)piperidin-1-yl)-4-methoxyphenyl)-4,4,4-trifluorobut-2-enamide], the GI50 stood at 37.1 nM. The same measure for `CC#CC(=O)Nc1cc(Nc2ncc(Br)c(Nc3ccccc3P(C)(C)=O)n2)c(OC)cc1N1CCC(N2CCN(CCCC#Cc3cccc4c3CN(C3CCC(=O)NC3=O)C4=O)CC2)CC1` (stereo not shown) [Compound D604, N-(5-((5-bromo-4-((2-(dimethylphosphoryl)phenyl)amino)pyrimidin-2-yl)amino)-2-(4-(4-(5-(2-(2,6-dioxopiperidin-3-yl)-1-oxoisoindolin-4-yl)pent-4-yn-1-yl)piperazin-1-yl)piperidin-1-yl)-4-methoxyphenyl)but-2-ynamide]: 44.4 nM; for `COc1cc(N2CCC(N3CCN(CCCCC#Cc4cccc5c4CN(C4CCC(=O)NC4=O)C5=O)CC3)CC2)c(NC(=O)/C=C/C(F)(F)F)cc1Nc1ncc(Cl)c(Nc2ccccc2P(C)(C)=O)n1` (stereo not shown) [Compound D620, N-(5-((5-chloro-4-((2-(dimethylphosphoryl)phenyl)amino)pyrimidin-2-yl)amino)-2-(4-(4-(6-(2-(2,6-dioxopiperidin-3-yl)-1-oxoisoindolin-4-yl)hex-5-yn-1-yl)piperazin-1-yl)piperidin-1-yl)-4-methoxyphenyl)-4,4,4-trifluorobut-2-enamide]: 46.7 nM; for `COc1cc(N2CCC(N3CCN(CCCC#Cc4ccc5c(c4)CN(C4CCC(=O)NC4=O)C5=O)CC3)CC2)c(NC(=O)/C=C/C(F)(F)F)cc1Nc1ncc(Cl)c(Nc2ccccc2P(C)(C)=O)n1` (stereo not shown) [Compound D622, N-(5-((5-chloro-4-((2-(dimethylphosphoryl)phenyl)amino)pyrimidin-2-yl)amino)-2-(4-(4-(5-(2-(2,6-dioxopiperidin-3-yl)-1-oxoisoindolin-5-yl)pent-4-yn-1-yl)piperazin-1-yl)piperidin-1-yl)-4-methoxyphenyl)-4,4,4-trifluorobut-2-enamide]: 258 nM. `COc1cc(N2CCC(N3CCN(CCCCC#Cc4ccc5c(c4)CN(C4CCC(=O)NC4=O)C5=O)CC3)CC2)c(NC(=O)/C=C/C(F)(F)F)cc1Nc1ncc(Cl)c(Nc2ccccc2P(C)(C)=O)n1` (stereo not shown) [Compound D623, N-(5-((5-chloro-4-((2-(dimethylphosphoryl)phenyl)amino)pyrimidin-2-yl)amino)-2-(4-(4-(6-(2-(2,6-dioxopiperidin-3-yl)-1-oxoisoindolin-5-yl)hex-5-yn-1-yl)piperazin-1-yl)piperidin-1-yl)-4-methoxyphenyl)-4,4,4-trifluorobut-2-enamide]: the GI50 stood at 94.3 nM. On to `COc1cc(N2CCC(N3CCN(CCCC#Cc4cccc5c4CN(C4CCC(=O)NC4=O)C5=O)CC3)CC2)c(NC(=O)C#CCO)cc1Nc1ncc(Cl)c(Nc2ccccc2P(C)(C)=O)n1` (stereo not shown) [Compound D628, N-(5-((5-chloro-4-((2-(dimethylphosphoryl)phenyl)amino)pyrimidin-2-yl)amino)-2-(4-(4-(5-(2-(2,6-dioxopiperidin-3-yl)-1-oxoisoindolin-4-yl)pent-4-yn-1-yl)piperazin-1-yl)piperidin-1-yl)-4-methoxyphenyl)-4-hydroxybut-2-ynamide], for which the GI50 worked out at 325 nM.

These data come from US20250257086A1, “EGFR DEGRADATION AGENT” (Beijing Tide Pharmaceutical Co., Ltd., priority 2022, published 2025).
